Experimental data as given in patent US9969698B2, “Quinoxalinyl-piperazinamide methods of use” (REXAHN PHARMACEUTICALS, INC., priority 2015, dated 2018).

Tested on: human breast tumor xenografts (MDA-MB-231)
Assay: Breast cancer xenograft model
Type: in vivo, mice
Settings: for TGI % (first value of the cell) / TGI % (second value of the cell): oral
Source text: The efficacy of RX-5902 in human cancer xenograft mouse models is examined. Female nude mice (nu/nu, Harlan or CRL: NU(NCr)-Foxn1^nu, Charles River), 9-10 weeks old, with a body weight (BW) range of 15-30 g on day 1 of the study, are fed ad libitum water (reverse osmosis, 1 ppm C1), and NIH 31 Modified and Irradiated Lab Diet® consisting of 18.0% crude protein, 5.0% crude fat, and 5.0% crude fiber. The mice are housed on irradiated Enrich-o'Cobs™ Laboratory Animal Bedding in static microisolators on a 12-hour light cycle at 20-22° C. (68-72° F.) and 40-60% humidity. The study complies with the recommendations of the Guide for, Care and Use of Laboratory Animals with respect to restraint, husbandry, surgical procedures, feed and fluid regulation, and veterinary care.
Various human tumor cell lines (e.g., HCT116, HT29, H460, H69, Caki-1, CaSki, MiaPaca2, BxPC3 and Colo 205 cells [ATCC, Manassas, Va., USA]) are cultured according to ATCC's instruction. The tumor cells are cultured in tissue culture flasks in a humidified incubator at 37° C., in an atmosphere of 5% CO2 and 95% air.
The cells are harvested during exponential growth and re-suspended with phosphate buffered saline. Each test animal receives a subcutaneous (s.c.) injection of 5×10^6 tumor cells into the right flank and tumor growth is monitored as the average tumor size approaches the target range of 80-300 mm^3. When tumors reach the target size mice are randomized into several groups (n=10-20) and treatment with various regimens of RX-5902 or a positive (e.g., gemcitabine) or negative control (e.g.; vehicle, saline) is initiated. Tumors and body weights are measured regularly until the study is terminated.
Tumors are measured in two dimensions using calipers, and volume is calculated using the formula:
[formula] where w=width and 1=length, in mm, of the tumor. Tumor weight may be estimated with the assumption that 1 mg is equivalent to 1 mm^3 of tumor volume.
Treatment begins on Day 1 in eight groups of mice (n=10-20/group) with established subcutaneous tumors of a particular cell line. Each group is treated according to the study design. All doses are adjusted per body weight. Animals in each group are divided for efficacy and sampling purposes. There are also groups designated to vehicle control and no treatment for sampling purposes.
Treatment efficacy is determined using data from Day 15. The MTV (n), the median tumor volume for the number of animals, n, on Day 15, is determined for each group. Percent tumor growth inhibition (% TGI) is defined as the difference between the MTV of the designated control group (vehicle administration) and the MTV of the drug-treated group, expressed as a percentage of the MTV of the control group: % TGI=[1−(MTVdrug treated/MTVcontrol)]×100 The data set for TGI analysis includes all animals in a group, except those that die due to treatment-related (TR) or non-treatment-related (NTR) causes. An agent that produces at least 60% TGI in this assay is considered to be potentially therapeutically active.
Animals are monitored individually for tumor growth until Day 71. The study protocol specifies a tumor growth delay assay based on the median time to endpoint (TTE) in a treated group versus the control group. Each animal is euthanized for tumor progression (TP) when its tumor reaches the 2000 mm^3 volume endpoint. The time to endpoint (TTE) for each mouse is calculated with the following equation:
[formula] where b is the intercept and m is the slope of the line obtained by linear regression of a log-transformed tumor growth data set. The data set is comprised of the first observation that exceeds the study endpoint volume and the three consecutive observations that immediately precede the attainment of the endpoint volume. […] In instances in which the log-transformed calculated TTE precedes the day prior to reaching endpoint or exceeds the day of reaching tumor volume endpoint, a linear interpolation is performed to approximate TTE. […]

COc1cc(OC)cc(N2CCN(C(=O)Nc3nc4cc(F)ccc4nc3OC)CC2)c1 [RX-5902, 4-(3,5-dimethoxyphenyl)-N-(7-fluoro-3-methoxyquinoxalin-2-yl)piperazine-1-carboxamide]
TGI % (first value of the cell) (160 mg/kg QWK): 44% | TGI % (second value of the cell) (160 mg/kg QWK): 39% | TGI % (first value of the cell) (320 mg/kg QWK): 65% | TGI % (second value of the cell) (320 mg/kg QWK): 82% | TGI % (first value of the cell) (600 mg/kg QWK): 83% | TGI % (second value of the cell) (600 mg/kg QWK): 165% | survival in treated mice (oral, 160, 320 and 600 mg/kg weekly): extending the survival
